Assay results as given in patent US20240376091A1, “THIADIAZOLEAMIDE DERIVATIVES AND THEIR APPLICATIONS” (ZHEJIANG UNIVERSITY, priority 2021, published 2024).
pIC50: −log10 of the molar value.

Columns and labels:
[1] = molecular target: T1, FL-AR^V684A (Homo sapiens, UniProt P10275, V685A); assay: Luciferase reporter assay in PC3 cells, AR V684A; type: cell-based; settings: read-out: IC50 toward FL-AR^V684A
T1 construct: toward full-length (FL)-AR^WT and FL-AR^V684A; expressed in transfected cells; host or cells: PC3
T1 sequence (P10275 1-920 V685A): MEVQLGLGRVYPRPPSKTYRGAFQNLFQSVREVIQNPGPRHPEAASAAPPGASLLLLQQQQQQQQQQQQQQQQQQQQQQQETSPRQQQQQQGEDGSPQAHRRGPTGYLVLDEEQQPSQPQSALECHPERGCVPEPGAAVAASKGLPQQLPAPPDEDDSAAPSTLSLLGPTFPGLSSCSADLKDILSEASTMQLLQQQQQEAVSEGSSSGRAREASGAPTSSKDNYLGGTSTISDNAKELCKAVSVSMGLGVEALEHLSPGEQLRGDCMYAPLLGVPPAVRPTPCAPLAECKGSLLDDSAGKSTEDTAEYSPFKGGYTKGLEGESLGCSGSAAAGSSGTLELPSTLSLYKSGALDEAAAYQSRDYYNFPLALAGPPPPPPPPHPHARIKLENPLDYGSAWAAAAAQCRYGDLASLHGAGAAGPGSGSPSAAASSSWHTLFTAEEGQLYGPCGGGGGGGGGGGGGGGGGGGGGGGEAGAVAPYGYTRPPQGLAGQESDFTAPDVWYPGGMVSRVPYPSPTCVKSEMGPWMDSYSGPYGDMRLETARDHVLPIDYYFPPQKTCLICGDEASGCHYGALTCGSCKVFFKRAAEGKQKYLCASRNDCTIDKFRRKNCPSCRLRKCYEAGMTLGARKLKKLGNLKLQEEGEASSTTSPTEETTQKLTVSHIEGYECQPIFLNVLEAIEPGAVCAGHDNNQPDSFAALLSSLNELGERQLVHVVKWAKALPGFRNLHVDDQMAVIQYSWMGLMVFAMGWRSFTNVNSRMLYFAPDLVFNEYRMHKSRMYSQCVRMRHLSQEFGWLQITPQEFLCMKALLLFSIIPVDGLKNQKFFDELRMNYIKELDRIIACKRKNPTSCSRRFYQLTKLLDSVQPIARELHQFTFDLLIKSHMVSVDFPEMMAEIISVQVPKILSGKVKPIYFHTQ
Procedure: Detection principles: A reporter system for detecting the activities of firefly luciferase. To quantitatively detect the interaction between transcription factors and target promoters, the fluorescent intensities are detected to quantitatively evaluate the activities of firefly luciferase.
Methods: PC3 cells (no endogenous AR) treated with DMEM media supplemented with 5% CSS for 48 hours. Then, the PC3 cells (1.2×10^4/well) were seeded into 96-well plates. After 16 hours, the PC3 cells were transfected with 20 ng/well plasmid and incubated for 20 min at room temperature. After 1 day incubation, the media in the wells was replaced, followed by the addition of various concentrations of compounds. After 48 hours, the culture medium was discarded and the cells were washed with 100 μL PBS, followed by addition of 30 μL 1×PLB and the 96-well plates was shaken on a shaker for 20 min to ensure complete lysis of the cells. Then, the cell lysis supernatant (20 μL/well) was transferred to a white opaque 96-well, and addition of 30 μL Luciferase Assay Reagent II to each well. Then, the fluorescent intensities of firefly luciferase were evaluated. Afterwards, 30 μL Stop&Glo Reagant was added to the wells, and the fluorescent intensities of […] evaluated.

[2] = molecular target: T2, LBP of AR-LBD (Rattus norvegicus, UniProt P15207); assay: AR competitive ligand binding assay (PolarScreen Androgen Receptor Competitor Assay Kit, fluorescence polarization); settings: A-1 at 12.5 μM-200 μM; 4 hours incubation
T2 construct: a buffer containing AR-LBD (His-GST) and fluorescence ligand; purchased
T2 sequence (P15207 651-882 limits assumed): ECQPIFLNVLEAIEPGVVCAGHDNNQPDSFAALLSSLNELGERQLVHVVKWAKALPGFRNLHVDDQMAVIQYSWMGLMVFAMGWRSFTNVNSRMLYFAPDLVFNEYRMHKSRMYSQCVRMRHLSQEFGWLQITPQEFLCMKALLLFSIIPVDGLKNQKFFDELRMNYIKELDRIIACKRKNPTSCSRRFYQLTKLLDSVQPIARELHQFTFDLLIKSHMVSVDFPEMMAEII
Procedure: Detection principles: The binding affinities of compounds to the LBP of AR-LBD were evaluated using PolarScreen™ Androgen Receptor Competitor Assay Kit. […] The addition of a test compound to a microporous plate containing the binary complex would reduce fluorescence polarization values if the compound could target LBP of AR-LBD by competing the fluorescence ligand.
After 4 hours incubation in darkness at room temperature, the fluorescence polarization values were determined using a multifunctional microplate reader.

## CC(=O)Cc1nsc(NC(=O)c2cc(-c3cccc(C(F)(F)F)c3)oc2C)n1 [Compound A-1, 2-Methyl-N-(3-(2-oxopropyl)-1,2,4-thiadiazol-5-yl)-5-(3-(trifluoromethyl)phenyl)furan-3-carboxamide]
[1]
  pIC50: 7.22
[2]
  binding to the AR LBP: did not bind to the AR LBP
